Test results reported in patent US20250051356A1, “RIFABUTIN ANALOGS FOR THE TREATMENT OF DISEASE” (priority 2021, published 2025).
≈ marks a conversion by molar mass, not a printed value. Read-outs that look alike come from different tables or passages of the source.

What was measured:
Format in all cases: cell-based
[1] = tested on: A. baumannii with Arr-mediated and RpoB mutation-mediated resistance
[2] = tested on: A. baumannii wild type (WT); assay: MIC against A. baumannii isolate in RPMI + FCS
[3] = tested on: Mycobacterium tuberculosis (H37Rv, strain ATCC 27294)
[4] = tested on: A. baumannii RpoB H535L mutant; assay: microbe, parasite or virus in culture; settings: for MIC: Acinetobacter baumannii, RPOBH535LMUTANT, read-out: A. baumannii MIC in RPMI + FCS, RpoB H535L
[5] = tested on: A. baumannii RpoB H535Q mutant; assay: microbe, parasite or virus in culture; settings: for MIC: Acinetobacter baumannii, RPOBH535QMUTANT, read-out: A. baumannii MIC in RPMI + FCS, RpoB H535Q
[6] = tested on: M. smegmatis (strain ATCC 700084); assay: MIC against M. smegmatis (90% growth inhibition, BacTiter-Glo); settings: 7H9 + ADC, 20 hours
[7] = tested on: M. abscessus subsp. abscessus CCUG 71636; assay: MIC against M. abscessus isolate in 7H9 + ADC; settings: for MIC: Mycobacteroides abscessus, CCUG71636
[8] = tested on: M. abscessus subsp. abscessus ATCC 19977; assay: MIC against M. abscessus in Middlebrook 7H9 + ADC; settings: for MIC: Mycobacteroides abscessus, ATCC19977
[9] = tested on: A. baumannii RpoB H535C mutant; assay: microbe, parasite or virus in culture; settings: for MIC: Acinetobacter baumannii, RPOBH535CMUTANT, read-out: A. baumannii MIC in RPMI + FCS, RpoB H535C
[10] = tested on: M. abscessus subsp. bolletii CCUG 50184; assay: MIC against M. abscessus isolate in 7H9 + ADC; settings: for MIC: Mycobacteroides abscessus, CCUG50184
[11] = tested on: Staphylococcus epidermidis (strain ATCC 12228); assay: MIC against S. epidermidis; settings: for MIC: Staphylococcus epidermidis, ATCC12228, CAMHB
[12] = tested on: M. abscessus subsp. abscessus CCUG 71382; assay: MIC against M. abscessus isolate in 7H9 + ADC; settings: for MIC: Mycobacteroides abscessus, CCUG71382
[13] = tested on: Hemophilus influenzae (strain ATCC 49247); assay: MIC against H. influenzae; settings: for MIC: Haemophilus influenzae, ATCC49247, Hemophilus test medium broth
[14] = tested on: Enterococcus faecium (strain NCTC 12204); assay: MIC against E. faecium; settings: for MIC: Enterococcus faecium
[15] = tested on: Streptococcus pneumoniae (strain ATCC 49619); assay: MIC against S. pneumoniae; settings: CAMHB + 5% laked horse blood
A. baumannii Arr-2 = assay: microbe, parasite or virus in culture; settings: for MIC: Acinetobacter baumannii, ARR2, read-out: A. baumannii MIC in RPMI + FCS, Arr-2
[16] = tested on: M. abscessus subsp. massiliense CCUG 48898; assay: MIC against M. abscessus isolate in 7H9 + ADC; settings: for MIC: Mycobacteroides abscessus, CCUG48898
[17] = tested on: Enterococcus faecalis (strain ATCC 51575); assay: MIC against E. faecalis; settings: for MIC: Enterococcus faecalis, ATCC51575, CAMHB
[18] = tested on: Streptococcus pyogenes (strain IHMA 1117021); assay: MIC against S. pyogenes; settings: CAMHB + 5% laked horse blood
[19] = tested on: S. aureus (UAMS-1625 strain); assay: MIC by broth microdilution against S. aureus; settings: Staphylococcus aureus, read-out: MIC S. aureus
M. xenopi (ATCC 19250) = assay: MIC against M. xenopi in CAMHB + ADC; settings: Mycobacterium xenopi, ATCC19250; ATCC 19250; CAMHB + ADC (5%); read-out: MIC M. xenopi
[20] = tested on: A. baumannii (HUMC1 strain); assay: MIC by broth microdilution against A. baumannii in RPMI + 10% FCS; settings: Acinetobacter baumannii; HUMC1 strain; RPMI + 10% FCS; read-out: MIC A. baumannii
M. avium (ATCC 25291) = assay: MIC against M. avium in CAMHB + ADC; settings: Mycobacterium avium, ATCC25291; ATCC 25291; CAMHB + ADC (5%); read-out: MIC M. avium
M. abscessus strains = assay: MIC over the five tested M. abscessus strains in 7H9 + ADC; settings: Mycobacteroides abscessus, span over five isolates, read-out: MIC values against the tested M. abscessus strains
M. kansasii (ATCC 12478) = assay: MIC against M. kansasii in CAMHB + ADC; settings: Mycobacterium kansasii, ATCC12478; ATCC 12478; CAMHB + ADC (5%); read-out: MIC M. kansasii
[21] = tested on: M. abscessus subsp. abscessus ATCC 19977; assay: MIC against M. abscessus isolate in CAMHB; settings: Mycobacteroides abscessus, ATCC19977
[22] = tested on: M. abscessus subsp. massiliense CCUG 48898; assay: MIC against M. abscessus isolate in CAMHB; settings: Mycobacteroides abscessus, CCUG48898
[23] = tested on: M. abscessus subsp. abscessus CCUG 71382; assay: MIC against M. abscessus isolate in CAMHB; settings: Mycobacteroides abscessus, CCUG71382
[24] = tested on: M. abscessus subsp. bolletii CCUG 50184; assay: MIC against M. abscessus isolate in CAMHB; settings: Mycobacteroides abscessus, CCUG50184
[25] = tested on: M. abscessus subsp. abscessus CCUG 71636; assay: MIC against M. abscessus isolate in CAMHB; settings: Mycobacteroides abscessus, CCUG71636; read-out: M. abscessus MIC in CAMHB, abscessus CCUG 71636
[26] = ATCC 19977, 7H9 + ADC, read-out: MIC M. abscessus
[27] = read-out: M. abscessus MIC in 7H9 + ADC, abscessus ATCC 19977

Row | Structure (SMILES) | activity against A. baumannii with Arr- and RpoB mutation-mediated resistance [1] | antibacterial activity against A. baumannii wild type strain [2] | MIC [4] | MIC [5] | MIC [7] | MIC [8, 26] | MIC [8, 27] | MIC [9] | MIC [10] | MIC [11] | MIC [12] | MIC [13] | MIC [19] | MIC (M. xenopi (ATCC 19250)) | MIC [20] | MIC (M. avium (ATCC 25291)) | MIC (M. abscessus strains) | MIC (A. baumannii Arr-2) | MIC [16] | MIC (M. kansasii (ATCC 12478)) | other results
1 | CO[C@H]1/C=C/O[C@@]2(C)Oc3c(C)c(O)c4c(c3C2=O)C(=O)C(N2CCOCC2)=C(NC(=O)/C(C)=C\C=C\[C@H](C)[C@H](O)[C@@H](C)[C@@H](O)[C@@H](C)[C@H](OC(=O)CC(=O)OCC2CCCN(C)C2)[C@@H]1C)C4=O (stereo partly drawn) [CGP4832, reference compound] | lost activity compared with rifabutin | did not exhibit strong activity |  |  |  |  |  |  |  |  |  |  |  |  |  |  |  |  |  |  | 
2 | CO[C@H]1/C=C/O[C@@]2(C)Oc3c(C)c(O)c4c(c3C2=O)C(=O)C(N2CCOCC2)=C(NC(=O)/C(C)=C\C=C\[C@H](C)[C@H](O)[C@@H](C)[C@@H](O)[C@@H](C)[C@H](OC(=O)CC(=O)OCC2CCCN(C)C2)[C@@H]1C)C4=O (stereo partly drawn) [CGP 4832] |  |  |  |  |  |  |  |  |  |  |  |  |  |  |  |  |  |  |  |  | MIC M. tuberculosis [3]: 3.6 µg/mL (≈ 3.85 µM); A. baumannii MIC in RPMI + FCS, RpoB H535L ([4]; RPMI + FCS): >32 µg/mL; A. baumannii MIC in RPMI + FCS, RpoB H535Q ([5]; RPMI + FCS): >32 µg/mL; MIC M. smegmatis [6]: 30 µg/mL; M. abscessus MIC in 7H9 + ADC, abscessus CCUG 71636 ([7]; 7H9 + ADC): 2 µg/mL; M. abscessus MIC in 7H9 + ADC, abscessus ATCC 19977 ([8]; 7H9 + ADC): 4 µg/mL; A. baumannii MIC in RPMI + FCS, RpoB H535C ([9]; RPMI + FCS): >32 µg/mL; M. abscessus MIC in 7H9 + ADC, bolletii CCUG 50184 ([10]; 7H9 + ADC): 8 µg/mL; MIC S. epidermidis ([11]; CAMHB): ≤2 µg/mL; M. abscessus MIC in 7H9 + ADC, abscessus CCUG 71382 ([12]; 7H9 + ADC): 8 µg/mL; MIC H. influenzae ([13]; Hemophilus test medium broth): 500 µg/mL (≈ 534 µM); MIC E. faecium ([14]; strain NCTC 12204, CAMHB): 2000 µg/mL (≈ 2140 µM); MIC S. pneumoniae [15]: ≤2 µg/mL; A. baumannii MIC in RPMI + FCS, Arr-2 (A. baumannii Arr-2; RPMI + FCS): 4 µg/mL; M. abscessus MIC in 7H9 + ADC, massiliense CCUG 48898 ([16]; 7H9 + ADC): 4 µg/mL; MIC E. faecalis ([17]; CAMHB): 2000 µg/mL (≈ 2140 µM); MIC S. pyogenes [18]: 8 µg/mL; A. baumannii MIC in RPMI + FCS, WT ([2]; RPMI + FCS): 8 µg/mL
3 | CO[C@H]1/C=C/O[C@@]2(C)Oc3c(C)c(O)c4c(c3C2=O)C2=NC3(CCN(CC(C)C)CC3)NC2=C(NC(=O)/C(C)=C\C=C\[C@H](C)[C@H](O)[C@@H](C)[C@@H](O)[C@@H](C)[C@H](OC(=O)CC(=O)OCC2CCCN(C)C2)[C@@H]1C)C4=O (stereo partly drawn) [Compound 3] | overcame antibiotic resistance mechanisms | retained strong antibacterial activity | 0.25 µg/mL | ≤ 0.002 µg/mL | 0.5 µg/mL | 1 µg/mL | 1 µg/mL | 0.008 µg/mL | 0.5 µg/mL | ≤ 2 µg/mL | 1 µg/mL | 1000 µg/mL (≈ 998 µM) | 0.06 µg/mL (≈ 0.0599 µM) | 1 µg/mL | ≤ 0.002 µg/mL | 1 µg/mL | 0.5 to 2 µg/mL | ≤ 0.002 µg/mL | 2 µg/mL | 0.125 µg/mL | MIC ([14]; NCTC12204, strain NCTC 12204, CAMHB, read-out: MIC E. faecium): 1000 µg/mL (≈ 998 µM); MIC [17]: 2000 µg/mL (≈ 2000 µM); MIC ([2]; Acinetobacter baumannii, read-out: A. baumannii MIC in RPMI + FCS, WT): ≤ 0.002 µg/mL
4 | CO[C@H]1/C=C/O[C@@]2(C)Oc3c(C)c(O)c4c(c3C2=O)C2=NC3(CCN(CC(C)C)CC3)NC2=C(NC(=O)/C(C)=C\C=C\[C@H](C)[C@H](O)[C@@H](C)[C@@H](O)[C@@H](C)[C@H](OC(C)=O)[C@@H]1C)C4=O [Rifabutin, rifabutin] |  |  | > 32 µg/mL | 0.004 µg/mL | 4 µg/mL | 8 µg/mL | 8 µg/mL | 0.03 µg/mL | 8 µg/mL | 4 µg/mL (≈ 4.72 µM) | 16 µg/mL | 500 µg/mL (≈ 590 µM) | 0.016 µg/mL (≈ 0.0189 µM) | 0.03 µg/mL | ≤ 0.002 µg/mL | 0.125 µg/mL | 2 to 16 µg/mL | 0.125 µg/mL | 2 µg/mL | 0.001 µg/mL | MIC [21]: 16 µg/mL (≈ 18.9 µM); MIC ([14]; NCTC12204, read-out: MIC E. faecium): 125 µg/mL (≈ 148 µM); MIC [22]: 8 µg/mL (≈ 9.44 µM); MIC [23]: > 16 µg/mL; MIC [24]: 16 µg/mL (≈ 18.9 µM); MIC [25]: 2 µg/mL (≈ 2.36 µM); MIC [17]: 4000 µg/mL (≈ 4720 µM); MIC ([2]; Acinetobacter baumannii; read-out: A. baumannii MIC in RPMI + FCS, WT): ≤ 0.002 µg/mL
